Experimental data as given in PubChem BioAssay (NCI).
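Results reflect a 48-hour exposure of cells in 96-well plates to compound at five concentrations. GI50 is the concentration that inhibits growth by half. TGI is the concentration that stops growth completely.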

How the values were obtained:
Assay in all cases: NCI tumour cell line growth inhibition, 48 h
RXF 393 renal = test system: RXF 393 renal
SK-MEL-5 melanoma = test system: SK-MEL-5 melanoma
A498 renal = test system: A498 renal
RPMI-8226 leukemia = test system: RPMI-8226 leukemia
MDA-MB-435 = test system: MDA-MB-435
TK-10 renal = test system: TK-10 renal
NCI-H522 lung = test system: NCI-H522 lung
HL-60(TB) leukemia = test system: HL-60(TB) leukemia
CCRF-CEM leukemia = test system: CCRF-CEM leukemia
MALME-3M melanoma = test system: MALME-3M melanoma

## CCC/C(=N/N=C(N)N)c1ccc(NC(=O)c2cc3cc(OC)ccc3[nH]2)cc1
RXF 393 renal
  GI50: 10.6 µM
  TGI: 30.8 µM
SK-MEL-5 melanoma
  GI50: 10.1 µM
  TGI: 27 µM
A498 renal
  GI50: 19.9 µM
  TGI: 54.2 µM
RPMI-8226 leukemia
  GI50: 2.13 µM
  TGI: 5.01 µM
MDA-MB-435
  GI50: 3.81 µM
  TGI: 21.7 µM
TK-10 renal
  GI50: 17.9 µM
  TGI: 39 µM
NCI-H522 lung
  GI50: 12.7 µM
  TGI: 33.9 µM

## O=C(CC1(O)C(=O)Nc2c(Cl)ccc(Cl)c21)c1ccc2ccccc2c1 (stereo unspecified)
RXF 393 renal
  TGI: 27 µM
SK-MEL-5 melanoma
  TGI: 17.7 µM
A498 renal
  TGI: 34.7 µM
HL-60(TB) leukemia
  TGI: 4.04 µM
RPMI-8226 leukemia
  TGI: 31 µM
CCRF-CEM leukemia
  TGI: > 100 µM
MALME-3M melanoma
  TGI: 25.1 µM
TK-10 renal
  TGI: 44.4 µM
NCI-H522 lung
  TGI: 9.24 µM

## Cc1ccc(-n2c3c(c4c(CN(C)C)c(O)ccc42)CCc2ccccc2C3=O)cc1
RXF 393 renal
  GI50: 13.6 µM
  TGI: 28 µM
SK-MEL-5 melanoma
  GI50: 14.9 µM
  TGI: 28.9 µM
A498 renal
  GI50: 15.1 µM
  TGI: 49.1 µM
HL-60(TB) leukemia
  GI50: 9.49 µM
  TGI: 24.5 µM
RPMI-8226 leukemia
  GI50: 11 µM
  TGI: 30.5 µM
MDA-MB-435
  GI50: 15.2 µM
  TGI: 30.4 µM
TK-10 renal
  GI50: 18.9 µM
  TGI: 35.6 µM
NCI-H522 lung
  GI50: 14.9 µM
  TGI: 32.7 µM

## O=C1CCCCCCCC/C=C\CC(c2ccco2)O1 (stereo unspecified)
RXF 393 renal
  GI50: 21.5 µM
  TGI: 65.2 µM
SK-MEL-5 melanoma
  GI50: 18.9 µM
  TGI: 36.9 µM
HL-60(TB) leukemia
  GI50: 12 µM
  TGI: 31 µM
RPMI-8226 leukemia
  GI50: 43.2 µM
  TGI: > 100 µM
CCRF-CEM leukemia
  GI50: 36 µM
  TGI: > 100 µM
MDA-MB-435
  GI50: 51.5 µM
  TGI: > 100 µM
MALME-3M melanoma
  GI50: 26.3 µM
  TGI: > 100 µM
TK-10 renal
  GI50: > 100 µM
  TGI: > 100 µM
NCI-H522 lung
  GI50: 18.1 µM
  TGI: 47.2 µM

## CC(=O)[CH-]C(=O)c1ccccc1.CC(=O)[CH-]C(=O)c1ccccc1.CC(C)CCCC(C)[C@H]1CCC2[C@@H]3CC=C4C[C@@H]([O-])CC[C@]4(C)C3CC[C@@]21C.CC[O-].[Ti+4] (stereo partly specified)
SK-MEL-5 melanoma
  GI50: 35.2 µM
  TGI: > 100 µM
A498 renal
  GI50: 53.1 µM
  TGI: > 100 µM
HL-60(TB) leukemia
  GI50: 42.3 µM
  TGI: > 100 µM
RPMI-8226 leukemia
  GI50: 18.5 µM
  TGI: 52.2 µM
CCRF-CEM leukemia
  GI50: 35.5 µM
  TGI: > 100 µM
MALME-3M melanoma
  GI50: 29.4 µM
  TGI: 75.6 µM
TK-10 renal
  GI50: 45.6 µM
  TGI: > 100 µM
NCI-H522 lung
  GI50: 26.3 µM
  TGI: 71.2 µM

## Cc1cc(S(N)(=O)=O)c(S/C(CC(C)C)=N\Nc2ccc([N+](=O)[O-])cc2)cc1Cl
RXF 393 renal
  GI50: 4.13 µM
  TGI: 19 µM
SK-MEL-5 melanoma
  GI50: 11 µM
  TGI: 23.2 µM
HL-60(TB) leukemia
  GI50: 7.07 µM
  TGI: > 100 µM
RPMI-8226 leukemia
  GI50: 2.58 µM
  TGI: 7.28 µM
MDA-MB-435
  GI50: 2.92 µM
  TGI: 9.42 µM
MALME-3M melanoma
  GI50: 12.5 µM
  TGI: 25 µM
TK-10 renal
  GI50: 2.93 µM
  TGI: 8.33 µM
NCI-H522 lung
  GI50: 18.8 µM
  TGI: 72.2 µM

## COc1ccc(/C=C\c2cc(OC)c(OC)c(OC)c2)cc1OC(=O)c1cccc(Cn2cc(CCOC(=O)[C@H](N)Cc3cn(C)c4ccccc34)nn2)c1
RXF 393 renal
  GI50: < 0.01 µM
  TGI: 12.9 µM
SK-MEL-5 melanoma
  GI50: < 0.01 µM
  TGI: 0.0254 µM
A498 renal
  GI50: < 0.01 µM
HL-60(TB) leukemia
  GI50: < 0.01 µM
RPMI-8226 leukemia
  GI50: < 0.01 µM
  TGI: 2.23 µM
CCRF-CEM leukemia
  GI50: < 0.01 µM
  TGI: > 100 µM
MALME-3M melanoma
  GI50: 0.081 µM
  TGI: 25.6 µM
TK-10 renal
  GI50: 25 µM
  TGI: > 100 µM
NCI-H522 lung
  GI50: < 0.01 µM
  TGI: 29.4 µM

## Cn1c(=O)nc2n(-c3cccc(Br)c3)c3ccccc3nc-2c1=O
RXF 393 renal
  TGI: 24 µM
SK-MEL-5 melanoma
  TGI: 3.41 µM
A498 renal
  TGI: 22.1 µM
HL-60(TB) leukemia
  TGI: 9.76 µM
RPMI-8226 leukemia
  TGI: 37.7 µM
CCRF-CEM leukemia
  TGI: 26.9 µM
MALME-3M melanoma
  TGI: 6.46 µM
TK-10 renal
  TGI: 24.1 µM
NCI-H522 lung
  TGI: 20.1 µM

## N#Cc1nc2c(S(=O)(=O)c3ccccc3)c(N)n(Cc3cccnc3)c2nc1C#N
RXF 393 renal
  GI50: 2.47 µM
  TGI: 9.1 µM
SK-MEL-5 melanoma
  GI50: > 100 µM
  TGI: > 100 µM
A498 renal
  GI50: 17.2 µM
  TGI: 55.5 µM
HL-60(TB) leukemia
  GI50: 3.71 µM
  TGI: > 100 µM
RPMI-8226 leukemia
  GI50: > 100 µM
  TGI: > 100 µM
CCRF-CEM leukemia
  GI50: 3.86 µM
  TGI: > 100 µM
MDA-MB-435
  GI50: > 100 µM
  TGI: > 100 µM
MALME-3M melanoma
  GI50: 3.7 µM
  TGI: 27.3 µM
TK-10 renal
  GI50: 26.1 µM
  TGI: 97 µM

## COC(=O)/C([Se]c1c(C)cc(C)cc1C)=C(\[Se]c1c(C)cc(C)cc1C)C(=O)OC
RXF 393 renal
  TGI: > 100 µM
SK-MEL-5 melanoma
  TGI: > 100 µM
A498 renal
  TGI: > 100 µM
HL-60(TB) leukemia
  TGI: > 100 µM
RPMI-8226 leukemia
  TGI: > 100 µM
CCRF-CEM leukemia
  TGI: > 100 µM
MALME-3M melanoma
  TGI: > 100 µM
TK-10 renal
  TGI: > 100 µM
NCI-H522 lung
  TGI: > 100 µM

## CCn1c(CN2CCN(Cc3ccccc3)CC2)nc2cc(NC(=O)c3cccs3)ccc21
RXF 393 renal
  GI50: 12.5 µM
  TGI: 33.1 µM
SK-MEL-5 melanoma
  GI50: 11.5 µM
  TGI: 24.1 µM
A498 renal
  GI50: 6.05 µM
  TGI: 29.6 µM
HL-60(TB) leukemia
  GI50: 20.5 µM
  TGI: 60.9 µM
RPMI-8226 leukemia
  GI50: 15.8 µM
  TGI: 46.1 µM
MDA-MB-435
  GI50: 14.8 µM
  TGI: 28.9 µM
MALME-3M melanoma
  GI50: 18.6 µM
  TGI: 37.3 µM
TK-10 renal
  GI50: 24 µM
  TGI: 70.4 µM

## Cc1ccccc1C(=O)c1ccccc1O
RXF 393 renal
  TGI: > 100 µM
SK-MEL-5 melanoma
  TGI: > 100 µM
A498 renal
  TGI: > 100 µM
HL-60(TB) leukemia
  TGI: > 100 µM
CCRF-CEM leukemia
  TGI: > 100 µM
MALME-3M melanoma
  TGI: > 100 µM
TK-10 renal
  TGI: > 100 µM

## CN(C)c1ccc([O][Bi]([Cl])[Cl])cc1
RXF 393 renal
  GI50: 82.2 µM
  TGI: > 100 µM
SK-MEL-5 melanoma
  GI50: 29.6 µM
  TGI: > 100 µM
MALME-3M melanoma
  GI50: > 100 µM
  TGI: > 100 µM
TK-10 renal
  GI50: > 100 µM
  TGI: > 100 µM

## O=C(Nc1cc(Cl)cc(Cl)c1)c1ccc(NC2=C(Cl)C(=O)N(Cc3ccc(Cl)cc3Cl)C2=O)cc1
RXF 393 renal
  GI50: 29.6 µM
  TGI: > 100 µM
SK-MEL-5 melanoma
  GI50: 1.16 µM
  TGI: 2.65 µM
RPMI-8226 leukemia
  GI50: 2.53 µM
  TGI: 10.9 µM
CCRF-CEM leukemia
  GI50: 0.22 µM
  TGI: 0.819 µM
MDA-MB-435
  GI50: 25 µM
  TGI: 57.9 µM
TK-10 renal
  GI50: 0.768 µM
  TGI: 26 µM
NCI-H522 lung
  GI50: 15.7 µM
  TGI: 34.3 µM

## CCc1c(C#N)c(S[C@@H](C(N)=O)c2ccccc2)nc(N(C)C)c1C#N
RXF 393 renal
  GI50: 4.51 µM
  TGI: 51.9 µM
A498 renal
  GI50: 1.3 µM
  TGI: 9.47 µM
RPMI-8226 leukemia
  GI50: > 100 µM
  TGI: > 100 µM
CCRF-CEM leukemia
  GI50: > 100 µM
  TGI: > 100 µM
MDA-MB-435
  GI50: > 100 µM
  TGI: > 100 µM
TK-10 renal
  GI50: 21.9 µM
  TGI: 80.4 µM

## CCOc1ccc(-c2nonc2NC(=O)c2cccc(C)c2)cc1OCC
RXF 393 renal
  GI50: > 100 µM
  TGI: > 100 µM
SK-MEL-5 melanoma
  GI50: > 100 µM
  TGI: > 100 µM
HL-60(TB) leukemia
  GI50: > 100 µM
  TGI: > 100 µM
RPMI-8226 leukemia
  GI50: > 100 µM
  TGI: > 100 µM
CCRF-CEM leukemia
  GI50: > 100 µM
  TGI: > 100 µM
MDA-MB-435
  GI50: > 100 µM
  TGI: > 100 µM
MALME-3M melanoma
  GI50: > 100 µM
  TGI: > 100 µM
TK-10 renal
  GI50: 22.7 µM
  TGI: 46.8 µM
NCI-H522 lung
  GI50: > 100 µM
  TGI: > 100 µM
